As usually defined, the IC50 is the midpoint of a concentration-inhibition curve.

The structures appear in SMILES notation.

This is an account of results in US20210238139A1, “MODULATORS OF TRYPTOPHAN CATABOLISM” (E-Therapeutics PLC, priority 2018, published 2021).

This assay concerns SK-OV-3 cells. Kind of assay: Effect of compounds on tryptophan catabolism in SK-OV-3 cell line (inhibition of kynurenine production, LC-MS/MS). The class given is cell-based. The note with it: Homo sapiens, SK-OV-3, 24 h, SK-OV-3 cell line, 24 h incubation, kynurenine in supernatant by LC-MS/MS; read-out: IC50 Ranges (ic50 values for inhibition of Kynurenine production). The method, boiled down: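 Kynurenine in supernatants quantified by LC-MS/MS after 24 h compound exposure (37 °C; top 30 μM, eight 3-fold steps, duplicate) in DMEM F-12 containing 6 mg/mL L-tryptophan. Cells pre-plated overnight in McCoy's 5A with 10% FBS. Viability checked in parallel by ATP luminescence.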
`O=C(Nc1ccc(Cl)cc1)N(Cc1cc2ncccc2o1)C1CCC1` [Compound 252, 3-(4-chlorophenyl)-1-cyclobutyl-1-(furo[3,2-b]pyridin-2-ylmethyl)urea]: the IC50 was > 5 µM.
Turning to `O=C(Nc1ccc(F)cc1)N(Cc1ccno1)C1CCCC1` [Compound 127, 1-cyclopentyl-3-(4-fluorophenyl)-1-(isoxazol-5-ylmethyl)urea], the IC50 was > 5 µM.
Under `Cn1ncc2ccc(CN(C(=O)Nc3ccc(Cl)cc3)C3CCC3)cc21` [Compound 235, 3-(4-chlorophenyl)-1-cyclobutyl-1-[(1-methylindazol-6-yl)methyl]urea] stands < 0.1 µM; under `CCc1ccc(NC(=O)N(Cc2nccs2)C2CCCC2)cc1` [Compound 36, 1-cyclopentyl-3-(4-ethylphenyl)-1-(thiazol-2-ylmethyl)urea], 1 to 5 µM; under `N#Cc1ccc(NC(=O)N(Cc2ccc3ocnc3c2)C2CCC2)cc1` [Compound 223, 1-(1,3-benzoxazol-5-ylmethyl)-3-(4-cyanophenyl)-1-cyclobutyl-urea], 0.1 to 0.5 µM.
With `COc1ccc(CN(C(=O)Nc2ccc(F)c(F)c2)C2CCCC2)cc1C` [Compound 47, 1-cyclopentyl-3-(3,4-difluorophenyl)-1-[(4-methoxy-3-methyl-phenyl)methyl]urea], the IC50 fell in the range of 0.1 to 0.5 µM.
In the case of `Cc1ccc(CN(C(=O)Nc2ccc(C#N)cc2)c2nccn2C)o1` [Compound 233, 3-(4-cyanophenyl)-1-[(5-methyl-2-furyl)methyl]-1-(1-methylimidazol-2-yl)urea], the IC50 lay within 1 to 5 µM.
With `Cc1ccc(CN(C(=O)Nc2ccc(Cl)cc2)C2CC3(COC3)C2)o1` [Compound 286, 3-(4-chlorophenyl)-1-[(5-methyl-2-furyl)methyl]-1-(2-oxaspiro[3.3]heptan-6-yl)urea], the IC50 fell in the range of 1 to 5 µM.
On to `Cc1ccc(CN(C(=O)Nc2ccc(Cl)cc2)c2ccccn2)o1` [Compound 282, 3-(4-chlorophenyl)-1-[(5-methyl-2-furyl)methyl]-1-(2-pyridyl)urea], for which the IC50 fell in the range of 0.5 to 1 µM.
For the molecule `Cc1ccc(CN(C(=O)Nc2ccc(Cl)cc2)C2CC(F)C2)o1` (centres unmarked) [Compound 222, 3-(4-chlorophenyl)-1-(3-fluorocyclobutyl)-1-[(5-methyl-2-furyl)methyl]urea], the IC50 was in the range of 0.1 to 0.5 µM.
Then `CCc1ccc(NC(=O)N(Cc2ccccc2Cl)C2CCCC2)cc1` [Compound 39, 1-[(2-chlorophenyl)methyl]-1-cyclopentyl-3-(4-ethylphenyl)urea], with > 5 µM; and `CCc1ccc(NC(=O)N(Cc2ccc(C)o2)C2CCCC2)cc1` [Compound 177, 1-cyclopentyl-3-(4-ethylphenyl)-1-[(5-methyl-2-furyl)methyl]urea], with < 0.1 µM.
For the molecule `Cc1ncc(CN(C(=O)Nc2ccc(C#N)cc2)C2CCCC2)o1` [Compound 291, 3-(4-cyanophenyl)-1-cyclopentyl-1-[(2-methyloxazol-5-yl)methyl]urea], the IC50 fell in the range of 0.5 to 1 µM.
Then `CC(C)(C)OC(=O)N1CCC(CN(C(=O)Nc2ccccc2)C2CCCC2)CC1` [Compound 118, tert-butyl 4-[[cyclopentyl(phenylcarbamoyl)amino]methyl]piperidine-1-carboxylate], with 1 to 5 µM; and `CC(c1cccc(C#N)c1)N(C(=O)Nc1ccc(F)cc1)C1CCCC1` (racemic) [Compound 187, 1-[1-(3-cyanophenyl)ethyl]-1-cyclopentyl-3-(4-fluorophenyl)urea], with 0.1 to 0.5 µM.
Consider `Cn1ncc2ccc(CN(C(=O)Nc3ccc(C#N)cc3)C3CCC3)cc21` [Compound 217, 3-(4-cyanophenyl)-1-cyclobutyl-1-[(1-methylindazol-6-yl)methyl]urea], for which the IC50 fell in the range of 0.1 to 0.5 µM.
In the case of `O=C(NCc1sccc1Cl)Nc1cccc(Cl)c1` [Compound 204, 1-(3-chlorophenyl)-3-[(3-chloro-2-thienyl)methyl]urea], the IC50 was > 5 µM.
`Cc1nocc1N(CC1CCC2(CC1)COC2)C(=O)Nc1ccc(C#N)cc1` [Compound 325, 3-(4-cyanophenyl)-(3-methylisoxazol-4-yl)-1-(2-oxaspiro[3.5]nonan-7-ylmethyl)urea]: the IC50 is > 5 µM.
Regarding `O=C(Nc1ccc(Cl)cc1Cl)N(Cc1cccs1)C1CCCC1` [Compound 59, 1-cyclopentyl-3-(2,4-dichlorophenyl)-1-(2-thienylmethyl)urea], the IC50 is 0.5 to 1 µM.
For the molecule `Cc1ccc(CN(C(=O)Nc2ccc(C#N)cc2)C2CCCC2(F)F)o1` (centres unmarked) [Compound 214, 3-(4-cyanophenyl)-1-(2,2-difluorocyclopentyl)-1-[(5-methyl-2-furyl)methyl]urea], the IC50 is < 0.1 µM.
On to `O=C(Nc1ccccc1Cl)N(Cc1cccs1)C1CCCC1` [Compound 2, 3-(2-chlorophenyl)-1-cyclopentyl-1-(2-thienylmethyl)urea], for which the IC50 was 1 to 5 µM.
With `CN(C(=O)N(Cc1cccs1)C1CCCC1)c1ccccc1` [Compound 23, 1-cyclopentyl-3-methyl-3-phenyl-1-(2-thienylmethyl)urea], the IC50 is > 5 µM.
On to `COc1ccc(N(Cc2cccs2)C(=O)NC2CCCCC2)cc1` [Compound 202, 3-cyclohexyl-(4-methoxyphenyl)-1-(2-thienylmethyl) urea], for which the IC50 fell in the range of 1 to 5 µM.
As for `COC1CC(N(Cc2ccc(C)o2)C(=O)Nc2ccc(C#N)cc2)C1` (centres unmarked) [Compound 216, 3-(4-cyanophenyl)-1-(3-methoxycyclobutyl)-1-[(5-methyl-2-furyl)methyl]urea], the IC50 was < 0.1 µM.
Consider `Cc1ccc(CN(C(=O)Nc2ccc(-c3cnn(C)c3)nc2)C2CCCC2)o1` [Compound 160, 1-cyclopentyl-1-[(5-methyl-2-furyl)methyl]-3-[6-(1-methylpyrazol-4-yl)-3-pyridyl]urea], for which the IC50 lay within 1 to 5 µM.
For `Cc1ccc(CN(C(=O)Nc2ccc(C#N)cc2)c2cnnn2C)o1` [Compound 268, 3-(4-cyanophenyl)-1-[(5-methyl-2-furyl)methyl]-1-(3-methyltriazol-4-yl)urea], the half-maximal inhibitory concentration (IC50) lay within 0.5 to 1 µM.
On to `O=C(Nc1cccc(F)c1)N(Cc1cccs1)C1CCCC1` [Compound 55, 1-cyclopentyl-3-(3-fluorophenyl)-1-(2-thienylmethyl)urea], for which the IC50 fell in the range of 0.5 to 1 µM.
With `Cc1ccc(CN(C(=O)Nc2ccc(C(N)=O)cc2)C2CCCC2)o1` [Compound 117, 4-[[cyclopentyl-[(5-methyl-2-furyl)methyl]carbamoyl]-amino]benzamide], the IC50 was in the range of 1 to 5 µM.
In the case of `Cc1ccc(CN(C(=O)Nc2ccc(C3COC3)cc2)C2CCCC2)o1` [Compound 317, 1-cyclopentyl-1-[(5-methyl-2-furyl)methyl]-3-[4-(oxetan-3-yl)phenyl]urea], the IC50 was in the range of 1 to 5 µM.
For `Cc1cn(-c2ccc(NC(=O)N(Cc3ccc(C)o3)C3CCCC3)cc2)nn1` [Compound 320, 1-cyclopentyl-1-[(5-methyl-2-furyl)methyl]-3-[4-(4-methyltriazol-1-yl)phenyl]urea], the IC50 lay in the range of 0.1 to 0.5 µM.
Regarding `O=C(Nc1ccc(Cl)cc1)N(Cc1cn2ccncc2n1)C1CCC1` [Compound 212, 3-(4-chlorophenyl)-1-cyclobutyl-1-(imidazo[1,2-a]pyrazin-2-ylmethyl)urea], the IC50 lay in the range of 1 to 5 µM.
For the molecule `CCc1ccc(CN(C(=O)Nc2ccc(C#N)cc2)c2cnoc2C)o1` [Compound 299, 3-(4-cyanophenyl)-1-[(5-ethyl-2-furyl)methyl]-1-(5-methylisoxazol-4-yl)urea], the IC50 is 0.1 to 0.5 µM.
